Key:
[1] = test system: HIF-1α and HIF-2α; experiment: Western blotting of HIF-1α and HIF-2α protein levels in Hep3B cells; assay type: cell-based
Experimental: To investigate potential cellular target engagement of NBA-ZG-2291 with FIH, we performed a time-dependent cellular thermal shift assay (CETSA) using Hep3B cells. The results imply that, after 30 min of light activation (365 nm, 16 W), NBA-ZG-2291 effectively stabilizes FIH with a ΔT m of about 9 °C after incubation for 12–48 h (Figure A), indicating sustained engagement with FIH. […] We also performed Western blotting to examine the protein levels of both HIF-1α and HIF-2α in control and NBA-ZG-2291-treated Hep3B cells.

[2] = biological target: FIH (Homo sapiens, UniProt Q9NWT6); experiment: Intact protein mass analysis of FIH treated with compound; assay type: binding; conditions: FIH 5 μM, compound 50 μM
Experimental: 3 (A) Intact protein mass analysis of FIH (5 μM) and FIH (5 μM) treated with NBA-ZG-2291 (50 μM) without irradiation. (B) Crystal structure view of FIH in complex with NBA-ZG-2291 without irradiation. (C) Superimposition of the crystal structure FIH in complex with NBA-ZG-2291 (green) (PDB ID: 9I4H) and that in complex with ZG-2291 (pink) (PDB ID: 8II0 ). (D) Intact protein mass analysis of FIH (5 μM) and FIH (5 μM) treated with NBA-ZG-2291 (50 μM) followed by 30 min of irradiation (365 nm, 16 W). (E) Predicted covalent binding mode of NBA-ZG-2291 with FIH.
Subsequently, we verified the covalent reaction of NBA-ZG-2291 and FIH with irradiation in solution using, intact protein mass analyzes.
3.4 Intact protein mass spectrometry
Purified FIH (5 μM final) was incubated with Lys-1 at 50 μM in 50 mM Tris pH 7.5, 50 μM MnCl2 in a total volume of 100 μL.
All experiments were incubated at 25 ℃ for 1 h, then with or without irradiation at 365 nm for 30 min. […]
The process of customizing non-standard residues (NBA-ZG-2291 modified Lys106) in the amber14sb force field involved the following steps: First, the molecular structure of NBA-ZG-2291 was obtained and its topology was generated. […] The molecular charges were then calculated using the RESP method, and the topology file was updated with these charge values. […]

Chain of FIH (Q9NWT6 whole entry): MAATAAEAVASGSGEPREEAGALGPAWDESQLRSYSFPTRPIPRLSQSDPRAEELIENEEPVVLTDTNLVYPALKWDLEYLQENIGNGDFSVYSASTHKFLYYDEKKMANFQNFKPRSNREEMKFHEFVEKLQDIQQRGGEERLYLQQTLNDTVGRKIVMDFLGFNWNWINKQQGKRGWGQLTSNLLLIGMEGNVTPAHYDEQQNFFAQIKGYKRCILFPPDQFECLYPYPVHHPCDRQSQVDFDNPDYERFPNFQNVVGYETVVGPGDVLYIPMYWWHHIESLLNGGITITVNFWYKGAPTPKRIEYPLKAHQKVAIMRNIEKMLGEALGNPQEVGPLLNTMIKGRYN

- Covalent adduct with FIH by intact protein MS ([2]; absence of irradiation): failed to detect the covalent adducts
SMILES: O=C(O)CNC(=O)c1ncc(-c2cc(-c3ccc(CO)c([N+](=O)[O-])c3)no2)cc1O [NBA-ZG-2291]
- Protein levels of HIF-1α and HIF-2α [1]: did not significantly alter the levels of either HIF-1α or HIF-2α
- Covalent adduct with FIH by intact protein MS ([2]; 30 min light activation (365 nm, 16 W)): a new peak with the anticipated mass shift corresponding to covalent reaction was detected

— publication PMC12123601, “Light-Induced, Lysine-Targeting Irreversible Covalent Inhibition of the Human Oxygen Sensing Hydroxylase Factor Inhibiting HIF (FIH)” (Journal of the American Chemical Society, 2025)
